Starred links: 1 amine or outer side, 2 acyl side, 3 side chain; linkers in the order of their positions; H or OH if unused. Positions of bridges follow the written chain, without caps; N, C: chain ends. Non-standard residues stand in square brackets, D forms with d. Residues, ends and D or L forms follow the SMILES beside them. Groups on a side chain read outwards from the residue. No end group written: not given here. *: point of attachment. C18 diacid = O=C(O)CCCCCCCCCCCCCCCCC(=O)*; γGlu = O=C(O)[C@H](CCC(=O)[*:2])N[*:1]; Palmitoyl = CCCCCCCCCCCCCCCC(=O)*; Lauroyl = CCCCCCCCCCCC(=O)*; AEEA = NCCOCCOCC(=O)O
System: SH-SY5Y cells
Assay: Axonal growth of RA-differentiated SH-SY5Y cells on proteoglycan (ACAN) coating
Assay type: cell-based, human
Conditions: PW polypeptide 2.5 µM, 72 h, proteoglycan (ACAN)-coated plate, FIG. 1
Method: Therefore, RA-induced differentiated SH-SY5Y can be used to simulate neuronal axonal growth in vitro and to test the effects of PW polypeptides on axonal growth.
Preparation of culture medium for SH-SY5Y: 1) DMEM/F12 + 10% FBS + 1 × penicillin-streptomycin + 1 mM sodium pyruvate; 2) DMEM/F12 + 1% FBS + 1 × penicillin-streptomycin + 1 mM sodium pyruvate. Preparation of 50 mM retinoic acid stock solution: 15.02 mg of retinoic acid was weighed and dissolved in 1 mL of dimethyl sulfoxide (DMSO), aliquoted, and frozen at -80°C. Proteoglycan (ACAN/CSPG1) is a type of chondroitin sulfate proteoglycan (CSPG). Preparation of 1 mg/mL proteoglycan stock solution: 1 mg of ACAN solid was dissolved in 1 mL of distilled water, aliquoted, and frozen at -80°C. Preparation of PW polypeptide solution for cells (1 mM): the corresponding mass of polypeptide powder was weighed, dissolved in PBS and filtered through a 0.2 µm filter membrane, aliquoted, and frozen at -20°C.
The 1 mg/mL proteoglycan was diluted to 250 µg/mL with distilled water to coat a 24-well cell culture plate: each well was coated with 3 droplets of ACAN, 2 µL per droplet. Using the culture medium containing 10% FBS, SH-SY5Y cells were seeded in the proteoglycan-coated 24-well plate (20,000 cells/well) and incubated (37°C, 5% CO2) for 20 h. The medium was replaced with a culture medium containing 1% FBS, and PW polypeptide (2.5 µM) or an equal volume of PBS solution was added. After incubation for 72 h, the cells were fixed with 4% paraformaldehyde (room temperature, 30 min), and cell morphology was photographed and recorded using a 10× optical microscope. 20-30 cells were randomly selected under each field of view, and axonal length was measured using Image J-SNT.
Data analysis: All measured axonal lengths within each proteoglycan-coated range were averaged to serve as one data point. One-way analysis of variance and Tukey's test were used to compare the differences between groups. P<0.05 was considered as a significant difference.

## PW-252: polypeptide derivative, SEQ ID NO: 47 (G[dR]KKR[dR]Q[dR]RRCDMAEHTERLK([AEEA-AEEA-γGlu-Palmitoyl])ANDSLKLSQEYESI-NH2; N-terminus assumed; SMILES CCCCCCCCCCCCCCCC(=O)N[C@@H](CCC(=O)NCCOCCOCC(=O)NCCOCCOCC(=O)NCCCC[C@H](NC(=O)[C@H](CC(C)C)NC(=O)[C@H](CCCNC(=N)N)NC(=O)[C@H](CCC(=O)O)NC(=O)[C@@H](NC(=O)[C@H](Cc1c[nH]cn1)NC(=O)[C@H](CCC(=O)O)NC(=O)[C@H](C)NC(=O)[C@H](CCSC)NC(=O)[C@H](CC(=O)O)NC(=O)[C@H](CS)NC(=O)[C@H](CCCNC(=N)N)NC(=O)[C@H](CCCNC(=N)N)NC(=O)[C@@H](CCCNC(=N)N)NC(=O)[C@H](CCC(N)=O)NC(=O)[C@@H](CCCNC(=N)N)NC(=O)[C@H](CCCNC(=N)N)NC(=O)[C@H](CCCCN)NC(=O)[C@H](CCCCN)NC(=O)[C@@H](CCCNC(=N)N)NC(=O)CN)[C@@H](C)O)C(=O)N[C@@H](C)C(=O)N[C@@H](CC(N)=O)C(=O)N[C@@H](CC(=O)O)C(=O)N[C@@H](CO)C(=O)N[C@@H](CC(C)C)C(=O)N[C@@H](CCCCN)C(=O)N[C@@H](CC(C)C)C(=O)N[C@@H](CO)C(=O)N[C@@H](CCC(N)=O)C(=O)N[C@@H](CCC(=O)O)C(=O)N[C@@H](Cc1ccc(O)cc1)C(=O)N[C@@H](CCC(=O)O)C(=O)N[C@@H](CO)C(=O)N[C@H](C(N)=O)[C@@H](C)CC)C(=O)O)
  effect of promoting axonal growth compared with the scrambled polypeptide (Scr, negative control): significant effect of promoting axonal growth
  promoting effect on axonal growth compared with PW6: no significant difference

## CC[C@H](C)[C@H](NC(=O)[C@H](CO)NC(=O)[C@H](CCC(=O)O)NC(=O)[C@H](Cc1ccc(O)cc1)NC(=O)[C@@H]1CCC(=O)NCCCC[C@H](NC(=O)[C@H](CC(C)C)NC(=O)[C@H](CO)NC(=O)[C@H](CC(=O)O)NC(=O)[C@H](CC(N)=O)NC(=O)[C@H](C)NC(=O)[C@H](CCCCN)NC(=O)[C@H](CC(C)C)NC(=O)[C@H](CCCNC(=N)N)NC(=O)[C@H](CCC(=O)O)NC(=O)[C@@H](NC(=O)[C@H](Cc2c[nH]cn2)NC(=O)[C@H](CCC(=O)O)NC(=O)[C@H](C)NC(=O)[C@H](CCSC)NC(=O)[C@H](CC(=O)O)NC(=O)[C@H](CS)NC(=O)[C@H](CCCNC(=N)N)NC(=O)[C@H](CCCNC(=N)N)NC(=O)[C@H](CCCNC(=N)N)NC(=O)[C@H](CCC(N)=O)NC(=O)[C@H](CCCNC(=N)N)NC(=O)[C@H](CCCNC(=N)N)NC(=O)[C@H](CCCCN)NC(=O)[C@H](CCCCN)NC(=O)[C@H](CCCNC(=N)N)NC(=O)CN)[C@@H](C)O)C(=O)N[C@@H](CC(C)C)C(=O)N[C@@H](CO)C(=O)N[C@@H](CCC(N)=O)C(=O)N1)C(N)=O [PW-170] (H-GRKKRRQRRRCDMAEHTERLKANDSLKLSQEYESI-NH2; lactam 27-31)
  effect of promoting axonal growth compared with the scrambled polypeptide (Scr, negative control): significant effect of promoting axonal growth
  promoting effect on axonal growth compared with PW6: no significant difference

## PW-95: polypeptide derivative, SEQ ID NO: 12 (GRKKRRQRRRCDMAEHTERLKAKDSLKLSQEYESI; not fully specified; MOD_RES 35: note = I at position 35 is amidated; LIPID 23: note = Lys side-chain linked to 2-(2-(2-amino ethoxy) ethoxy) acetic acid-2-(2-(2-amino ethoxy) ethoxy)acetic acid-gamma Glutamic acid-Octadecanedioic acid; SITE 6: note = D-arginine; SITE 2: note = D-arginine; SITE 8: n)
  promoting effect on axonal growth compared with PW6: not significantly enhanced

## PW-253: polypeptide derivative, SEQ ID NO: 48 (G[dR]KKR[dR]Q[dR]RRDMAEHTERLK([AEEA-AEEA-γGlu-Palmitoyl])ANDSLKLSQEYESI-NH2; N-terminus assumed; SMILES CCCCCCCCCCCCCCCC(=O)N[C@@H](CCC(=O)NCCOCCOCC(=O)NCCOCCOCC(=O)NCCCC[C@H](NC(=O)[C@H](CC(C)C)NC(=O)[C@H](CCCNC(=N)N)NC(=O)[C@H](CCC(=O)O)NC(=O)[C@@H](NC(=O)[C@H](Cc1c[nH]cn1)NC(=O)[C@H](CCC(=O)O)NC(=O)[C@H](C)NC(=O)[C@H](CCSC)NC(=O)[C@H](CC(=O)O)NC(=O)[C@H](CCCNC(=N)N)NC(=O)[C@H](CCCNC(=N)N)NC(=O)[C@@H](CCCNC(=N)N)NC(=O)[C@H](CCC(N)=O)NC(=O)[C@@H](CCCNC(=N)N)NC(=O)[C@H](CCCNC(=N)N)NC(=O)[C@H](CCCCN)NC(=O)[C@H](CCCCN)NC(=O)[C@@H](CCCNC(=N)N)NC(=O)CN)[C@@H](C)O)C(=O)N[C@@H](C)C(=O)N[C@@H](CC(N)=O)C(=O)N[C@@H](CC(=O)O)C(=O)N[C@@H](CO)C(=O)N[C@@H](CC(C)C)C(=O)N[C@@H](CCCCN)C(=O)N[C@@H](CC(C)C)C(=O)N[C@@H](CO)C(=O)N[C@@H](CCC(N)=O)C(=O)N[C@@H](CCC(=O)O)C(=O)N[C@@H](Cc1ccc(O)cc1)C(=O)N[C@@H](CCC(=O)O)C(=O)N[C@@H](CO)C(=O)N[C@H](C(N)=O)[C@@H](C)CC)C(=O)O)
  effect of promoting axonal growth compared with the scrambled polypeptide (Scr, negative control): significant effect of promoting axonal growth
  promoting effect on axonal growth compared with PW6: no significant difference

## PW-92: polypeptide derivative, SEQ ID NO: 10 (G[dR]KKR[dR]QRRRCDMAEHTERLK([AEEA-AEEA-γGlu-C18 diacid])ANDSLKLSQEYESI-NH2; not fully specified (residue 8))
  effect of promoting axonal growth compared with the scrambled polypeptide (Scr, negative control): significant effect of promoting axonal growth
  promoting effect on axonal growth compared with PW6: no significant difference

## PW-259: polypeptide derivative, SEQ ID NO: 50 (G[dR]KKR[dR]Q[dR]RRDMAEHTERLK([AEEA-γGlu-Palmitoyl])ANDSLKLSQEYESI-NH2; N-terminus assumed; SMILES CCCCCCCCCCCCCCCC(=O)N[C@@H](CCC(=O)NCCOCCOCC(=O)NCCCC[C@H](NC(=O)[C@H](CC(C)C)NC(=O)[C@H](CCCNC(=N)N)NC(=O)[C@H](CCC(=O)O)NC(=O)[C@@H](NC(=O)[C@H](Cc1c[nH]cn1)NC(=O)[C@H](CCC(=O)O)NC(=O)[C@H](C)NC(=O)[C@H](CCSC)NC(=O)[C@H](CC(=O)O)NC(=O)[C@H](CCCNC(=N)N)NC(=O)[C@H](CCCNC(=N)N)NC(=O)[C@@H](CCCNC(=N)N)NC(=O)[C@H](CCC(N)=O)NC(=O)[C@@H](CCCNC(=N)N)NC(=O)[C@H](CCCNC(=N)N)NC(=O)[C@H](CCCCN)NC(=O)[C@H](CCCCN)NC(=O)[C@@H](CCCNC(=N)N)NC(=O)CN)[C@@H](C)O)C(=O)N[C@@H](C)C(=O)N[C@@H](CC(N)=O)C(=O)N[C@@H](CC(=O)O)C(=O)N[C@@H](CO)C(=O)N[C@@H](CC(C)C)C(=O)N[C@@H](CCCCN)C(=O)N[C@@H](CC(C)C)C(=O)N[C@@H](CO)C(=O)N[C@@H](CCC(N)=O)C(=O)N[C@@H](CCC(=O)O)C(=O)N[C@@H](Cc1ccc(O)cc1)C(=O)N[C@@H](CCC(=O)O)C(=O)N[C@@H](CO)C(=O)N[C@H](C(N)=O)[C@@H](C)CC)C(=O)O)
  effect of promoting axonal growth compared with the scrambled polypeptide (Scr, negative control): significant effect of promoting axonal growth
  promoting effect on axonal growth compared with PW6: no significant difference

## PW-261: polypeptide derivative, SEQ ID NO: 51 (G[dR]KKR[dR]Q[dR]RRDMAEHTERLK([AEEA-γGlu-Lauroyl])ANDSLKLSQEYESI-NH2; N-terminus assumed; SMILES CCCCCCCCCCCC(=O)N[C@@H](CCC(=O)NCCOCCOCC(=O)NCCCC[C@H](NC(=O)[C@H](CC(C)C)NC(=O)[C@H](CCCNC(=N)N)NC(=O)[C@H](CCC(=O)O)NC(=O)[C@@H](NC(=O)[C@H](Cc1c[nH]cn1)NC(=O)[C@H](CCC(=O)O)NC(=O)[C@H](C)NC(=O)[C@H](CCSC)NC(=O)[C@H](CC(=O)O)NC(=O)[C@H](CCCNC(=N)N)NC(=O)[C@H](CCCNC(=N)N)NC(=O)[C@@H](CCCNC(=N)N)NC(=O)[C@H](CCC(N)=O)NC(=O)[C@@H](CCCNC(=N)N)NC(=O)[C@H](CCCNC(=N)N)NC(=O)[C@H](CCCCN)NC(=O)[C@H](CCCCN)NC(=O)[C@@H](CCCNC(=N)N)NC(=O)CN)[C@@H](C)O)C(=O)N[C@@H](C)C(=O)N[C@@H](CC(N)=O)C(=O)N[C@@H](CC(=O)O)C(=O)N[C@@H](CO)C(=O)N[C@@H](CC(C)C)C(=O)N[C@@H](CCCCN)C(=O)N[C@@H](CC(C)C)C(=O)N[C@@H](CO)C(=O)N[C@@H](CCC(N)=O)C(=O)N[C@@H](CCC(=O)O)C(=O)N[C@@H](Cc1ccc(O)cc1)C(=O)N[C@@H](CCC(=O)O)C(=O)N[C@@H](CO)C(=O)N[C@H](C(N)=O)[C@@H](C)CC)C(=O)O)
  effect of promoting axonal growth compared with the scrambled polypeptide (Scr, negative control): significant effect of promoting axonal growth
  promoting effect on axonal growth compared with PW6: no significant difference
